Source: patent US20230000795A1, “LIPID CRYSTALLINE COMPOSITIONS WITH ENHANCED STABILITY FOR TOPICAL DELIVERY OF ACTIVE AGENT COMBINATIONS” (Ankh Life Sciences Limited, priority 2021, published 2023)
Values after ≈ are worked out from the molar mass of the structure shown. Values joined by “and” are separate entries in the source; they are usually repeats but may differ in a detail not shown here. Equal entries are not always repeated. Where two headings read alike, the source gives them in different places.

How the values were obtained:
[1] = test system: actinic keratosis cell line HaCaT; test: Growth inhibition of EGF-stimulated HaCaT cells (Cell Titer Glo); format: cell-based; details: for IC50: Homo sapiens
Method: To investigate the mechanisms by which these pathways are affected, GZ17-6.02 was administered to the actinic keratosis cell line HT297.T in vitro and changes in signalling within various pathways were measured 6 hours post administration with cell death measured 24 hours post administration. […] 5-Fluorouracil was tested at a concentration of 50 uM.
Materials and Methods: A Cell Titer Glo assay was used to determine the sensitivity of EGF-stimulated HaCaT cells to GZ21T. Annexin-V assay was utilized to assess the pro-apoptotic effects of GZ21T on HaCaT cells, and the mechanism was clarified by western blot. AK lesions were induced in Female SKH-1 mice by exposing them to UVB radiation (500 J/m2) five times weekly for ten weeks. Mice were subsequently treated with 0.25 grams topical GZ21T or control cream five days per week. At the studies endpoint, lesional samples were collected from control and GZ21T treated mice and were subjected to RNA-sequencing and reverse phase protein arrays (RPPA). Gene set enrichment analysis (GSEA) was performed using the KEGG database as reference to identify the top pathways altered by GZ21T treatment. Gene set variation analysis (GSVA) was used to assess GZ21T's effect on pathways previously implicated in the pathogenesis of AK. Enrichment analysis was also performed on proteins showing decreased expression following GZ21T treatment using Enrichr with the KEGG database as reference.

[2] = In vitro permeation test through pig skin, infinite dose (150 mg, 230 mg/cm^2), Bronaugh flow-through cells; details: for Cumulative amount permeated: after application of 6% GZ17-6.02 cream batch, mean±SD
Method: Epidermal accumulation is significant due to the desired site of drug action on keratinocytes in actinic keratosis.
Three formulations were used in this experiment.
PBS buffer with 2% (w/w) Brij will be used as receptor solution.
The equipment used is Bronaugh diffusion cells. Parameters of the experiment is described in tables below. Analyses were performed according to RP-HPLC assay with additional calibration standard solutions. […] For the amount found in the tissue values both with and without cell 11 and 12 are reported.
After the in vitro experiment was terminated each membrane was washed, dismounted and prepared according to the following procedure: • 1. Wash the membrane six times with 0.5 ml PBS buffer and collect the PBS in the wash fraction tubes. • 2. Dismount the cells and gently clean the membranes with PBS moisture tops. Collect the tops in the wash fraction tubes. • 3. Gently separate […] from dermis by peeling the membrane and collect in a test tube. • 4. Cut out the cell flange (the unexposed skin) with a 10 mm punch and collect the material in a test tube. • 5. Cut the dermis into thin strips with a scalpel and collect the material in a test tube 1.5 ml.
Analysis of receptor solution and extractions from epidermis and dermis were performed by RP-HPLC.
Receptor solution were analyzed without any further treatment.
Tissue samples were treated according to the following procedure: • 1. […] Vortex the sample and sonicate for 30 minutes in cold water (2-8° C. add ice to the bath). • 3. The samples should then be centrifuged at 14000 rpm and transferred to HPLC vial for analysis.

[3] = Solubility of the active ingredients in aqueous GZ17-6.02 solutions; format: physicochemical; details: aqueous GZ17-6.02 solution
Excerpt: By comparison, in one study, the solubility of the active ingredients in aqueous GZ17-6.02 solutions (not the lipid crystalline formulation) was first analyzed. […]

[4] = Solubility in receptor solution (PBS with 0.1% Brij); format: physicochemical; details: aqueous with cosolvent or surfactant or cyclodextrin, thermodynamic from solid
Method: Excess of GZ17-6.02 were added to the solvent, which were stirred for 1 hour and incubated at 32° C. for 24 h. Thereafter the sample was centrifuged or filtrated and the solubility determined by HPLC method DM.216.03[4] or DM.217.01 [5]. One sample was prepared and duplicate injections were analysed.

[5] = IVPT on pig skin, finite dose 10 mg/cm^2, 3% and 6% GZ17-6.02 monoglyceride cream; details: after 24 h
Method: Wash the membrane six times with 0.5 ml PBS buffer and collect the PBS in the wash fraction tubes. • 2. Dismount the cells and gently clean the membranes with PBS moisture tops. Collect the tops in the wash fraction tubes. • 3. Gently separate […] from dermis by peeling the membrane and collect in a test tube. • 4. Cut out the cell flange (the unexposed skin) with a 10 mm punch and collect the material in a test tube. • 5. […] The samples should then be centrifuged at 14000 rpm and transferred to HPLC vial for analysis.

[6] = after application of 6% GZ17-6.02 cream
[7] = PBS buffer with 0.1% Brij, 32° C., 24 h, read-out: Solubility in receptor solution
[8] = same experimental methods (FIG. 6), read-out: IC50
[9] = pig, 24 h, 6 % GZ17-6.02 in cream

Structure (SMILES) | Amount adsorbed into dermis [2, 6] | Amount adsorbed into epidermis [2, 6] | Maximum obtained concentration in the receptor solution ([2]; previous IVPT experiment) | Solubility at 2-8° C. ([3]; pH 4.3) | Solubility at 25° C. ([3]; pH 4.3) | Solubility at 2-8° C. ([3]; pH 7.0) | Solubility at 25° C. ([3]; pH 7.0) | solubility at 24 h [4, 7] | IC50 [1, 8] | other results
COc1ccc2c(c1)[nH]c1c(C)nccc12 [Harmine, 7-methoxy-1-methyl-9H-pyrido[3,4-b]indole] | 38.9 ± 24.4 µg/g | 585.5 ± 227.8 µg/g | 0.13 µg/mL | >1.56 % w/w | >1.56 % w/w | 0.0014 % w/w | 0.0034 % w/w | 50 µg/mL (≈ 236 µM) | – | IC50 ([1]; read-out: IC50 as Monotherapy): 2.55 µg/mL and 12 µM
O=c1[nH]cc(F)c(=O)[nH]1 [5-Fluorouracil, reference compound] | – | – | – | – | – | – | – | – | 4.8 µM | –
O=C(O)Cc1ccccc1Nc1c(Cl)cccc1Cl [diclofenac, reference compound] | – | – | – | – | – | – | – | – | 602 µM | –
COc1cc(/C=C/C(=O)CC(=O)/C=C/c2ccc(O)c(OC)c2)ccc1O [Curcumin, 1,7-bis(4-hydroxy3-methoxyphenyl)-1,6-heptadiene-3,5-dione] | – | – | – | – | – | – | – | – | – | IC50 as Monotherapy ([1]; API alone): 0.736 µg/mL (≈ 2 µM); IC50 ([1]; API alone, read-out: IC50 as Monotherapy): 0.774 µg/mL and 2 µM; Maximum obtained concentration in the receptor solution ([2]; pig, 6 % GZ17-6.02 in cream): 0 µg/mL; Amount adsorbed into dermis [2, 9]: 0.40 ± 0.23 µg/g; Amount adsorbed into epidermis [2, 9]: 3.82 ± 1.88 µg/g; solubility at 24 h ([4]; 32 °C): 10 µg/mL (≈ 27.1 µM)
COc1ccc(C=O)cc1O [Isovanillin] | 29.4 ± 19.3 µg/g | 181.2 ± 118.3 µg/g | 18 µg/mL | 0.27 % w/w | 0.57 % w/w | 0.18 % w/w | 0.28 % w/w | 3960 ± 30 µg/mL (≈ 26000 µM) | – | Applied dose permeated the skin [5]: about 2%; Cumulative amount permeated ([2]; 2 h): 35.0 ± 20.7 μg/cm^2; Cumulative amount permeated ([2]; 4 h): 103.4 ± 47.6 μg/cm^2; Cumulative amount permeated ([2]; 6 h): 169.3 ± 66.1 μg/cm^2; Cumulative amount permeated ([2]; 8 h): 209.5 ± 74.4 μg/cm^2; Cumulative amount permeated ([2]; 24 h): 208 μg/cm^2 and 207.9 ± 95.2 μg/cm^2; Applied dose permeated when deviation from the linear regime (depletion) occurs ([2]; after 6-8 hours): about 1.5%; Systemic adsorption ([2]; extrapolated from in vitro 24 h permeation to a treated area of 25 cm^2): 5.2 mg
